From the Kinase Knowledgebase extract (Sharma et al. 2016)

Biological target: PIK3CA (human) (UniProt P42336)
Experiment: Assessment of PIK3CA Kinase Activity

Chain of PIK3CA (human) (P42336 whole entry, looked up): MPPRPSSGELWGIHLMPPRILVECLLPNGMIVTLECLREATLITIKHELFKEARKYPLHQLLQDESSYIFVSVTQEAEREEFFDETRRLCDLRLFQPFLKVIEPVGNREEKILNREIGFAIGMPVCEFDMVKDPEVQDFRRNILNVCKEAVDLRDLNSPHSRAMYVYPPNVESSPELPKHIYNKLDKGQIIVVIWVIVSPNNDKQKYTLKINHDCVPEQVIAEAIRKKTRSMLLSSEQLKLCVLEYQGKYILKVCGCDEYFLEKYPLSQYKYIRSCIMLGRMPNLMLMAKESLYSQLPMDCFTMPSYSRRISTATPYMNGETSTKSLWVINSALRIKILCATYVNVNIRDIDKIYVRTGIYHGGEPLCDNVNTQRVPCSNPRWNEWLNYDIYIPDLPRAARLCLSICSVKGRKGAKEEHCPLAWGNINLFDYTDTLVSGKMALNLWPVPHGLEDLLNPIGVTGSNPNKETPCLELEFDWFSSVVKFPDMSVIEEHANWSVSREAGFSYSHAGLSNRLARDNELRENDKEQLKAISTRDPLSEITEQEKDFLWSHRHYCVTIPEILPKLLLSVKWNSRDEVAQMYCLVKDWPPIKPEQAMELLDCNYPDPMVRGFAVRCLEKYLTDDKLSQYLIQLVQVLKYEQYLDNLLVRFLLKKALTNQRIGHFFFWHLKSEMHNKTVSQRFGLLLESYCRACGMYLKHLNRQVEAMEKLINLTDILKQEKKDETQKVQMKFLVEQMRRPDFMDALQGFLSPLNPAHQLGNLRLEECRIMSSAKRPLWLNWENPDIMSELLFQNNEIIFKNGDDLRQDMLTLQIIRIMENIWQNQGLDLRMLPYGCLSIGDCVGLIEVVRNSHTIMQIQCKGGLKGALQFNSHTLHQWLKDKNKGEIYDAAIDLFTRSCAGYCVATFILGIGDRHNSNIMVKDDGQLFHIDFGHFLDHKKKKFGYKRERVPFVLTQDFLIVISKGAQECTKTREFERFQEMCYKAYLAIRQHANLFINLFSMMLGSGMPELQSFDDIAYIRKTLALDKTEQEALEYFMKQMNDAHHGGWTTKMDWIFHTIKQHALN

Structure (SMILES) | IC50 [nM]
Cc1ncc(-c2nc(N3CCOCC3)c3sc(NCCCCC(=O)NO)cc3n2)cn1 | < 100
COCCNc1nc(-c2cccc3[nH]ncc23)nc2cc(CN(C)c3ncc(C(=O)NO)cn3)sc12 | > 10000
Nc1ncc(-c2nc(N3CCOCC3)c3sc(NCCCCC(=O)NO)cc3n2)cn1 | < 100
CNc1ccc(-c2nc(N3CCOCC3)c3sc(NS(=O)(=O)c4ccc(C=CC(=O)NO)cc4)cc3n2)cn1 | < 100
COc1ccc(-c2nc(N3CCOCC3)c3sc(NCCCCCC(=O)NO)cc3n2)cn1 | < 100
CN(Cc1cc2nc(-c3cccc4[nH]ncc34)nc(N3CCNCC3)c2s1)c1ncc(C(=O)NO)cn1 | > 10000
CN(Cc1cc2nc(-c3ccc4c(c3)CC(=O)N4)nc(N3CCOCC3)c2s1)c1ncc(C(=O)NO)cn1 | > 10000
CNc1ccc(-c2nc(N3CCOCC3)c3sc(CN(CCO)c4ncc(C(=O)NO)cn4)cc3n2)cn1 | < 100
COc1ncc(-c2nc(N3CCOCC3)c3sc(C(C)N(C)c4ncc(C(=O)NO)cn4)cc3n2)cn1 (centres undefined) | < 100
COc1ccc(-c2nc(N3CCOCC3)c3sc(CN(CCO)c4ncc(C(=O)NO)cn4)cc3n2)cn1 | < 100
CN(Cc1cc2nc(-c3ccc([N+](=O)[O-])c(O)c3)nc(N3CCOCC3)c2s1)c1ncc(C(=O)NO)cn1 | < 100
CN(Cc1cc2nc(-c3ccc(N)c(F)c3)nc(N3CCOCC3)c2s1)c1ncc(C(=O)NO)cn1 | < 100
COc1ccc(-c2nc(N3CCOCC3)c3sc(NCCCCC(=O)NO)cc3n2)cn1 | < 100
CN(Cc1cc2nc(-c3ccc4[nH]c(=O)[nH]c4c3)nc(N3CCOCC3)c2s1)c1ncc(C(=O)NO)cn1 | > 10000
CS(=O)(=O)N1CCN(Cc2cc3nc(-c4cccc5[nH]ncc45)nc(N4CCN(CCCCC(=O)NO)CC4)c3s2)CC1 | > 10000
CNc1ccc(-c2nc(N3CCOCC3)c3sc(S(=O)(=O)NCC4CCN(c5ncc(C(=O)NO)cn5)CC4)cc3n2)cn1 | < 100
CS(=O)(=O)N1CCN(Cc2cc3nc(-c4ccc(OCCCCCC(=O)NO)cc4)nc(N4CCOCC4)c3s2)CC1 | 100 to 1000

Structure (SMILES) | IC50 [nM]
CC(C)OC(=O)Nc1ccc(-c2nc(N3CCOCC3)c3sc(CN(C)c4ncc(C(=O)NO)cn4)cc3n2)cc1 | > 10000
CC(=NO)c1ccc(F)c(-c2nc(N3CCOCC3)c3sc(CN(C)c4ncc(C(=O)NO)cn4)cc3n2)c1 | 100 to 1000
COc1cccc(Nc2nc(-c3cccc4[nH]ncc34)nc3cc(CN(C)c4ncc(C(=O)NO)cn4)sc23)c1 | > 10000
CN(Cc1cc2nc(-c3cccc4c3CCN4)nc(N3CCOCC3)c2s1)c1ncc(C(=O)NO)cn1 | > 10000
CCCc1nc2cc(C=CC(=O)NO)ccc2n1CCNCc1cc2nc(-c3ccc(NC)nc3)nc(N3CCOCC3)c2s1 | < 100
CN(C)CCOc1ccc(-c2nc(N3CCOCC3)c3sc(CN(C)c4ncc(C(=O)NO)cn4)cc3n2)cn1 | > 10000
CN(Cc1cc2nc(-c3ccc(N4CCCC4)cc3)nc(N3CCOCC3)c2s1)c1ncc(C(=O)NO)cn1 | > 10000
CCN(CC)c1nc(-c2cccc3[nH]ncc23)nc2cc(CN(C)c3ncc(C(=O)NO)cn3)sc12 | > 10000
CN(Cc1cc2nc(-c3cccc(OCCO)c3)nc(N3CCOCC3)c2s1)c1ncc(C(=O)NO)cn1 | < 100
CNc1ccc(-c2nc(N3CCOCC3)c3sc(NS(=O)(=O)c4cccc(C=CC(=O)NO)c4)cc3n2)cn1 | < 100
CN(Cc1cc2nc(-c3cc(O)ccc3F)nc(N3CCOCC3)c2s1)c1ncc(C(=O)NO)cn1 | < 100
COc1ccc(-c2nc(N3CCOCC3)c3sc(CN(C)c4ncc(C(=O)NO)cn4)cc3n2)cc1 | > 10000
CN(Cc1cc2nc(-c3ccc(OCCO)nc3)nc(N3CCOCC3)c2s1)c1ncc(C(=O)NO)cn1 | < 100
Nc1ncc(-c2nc(N3CCOCC3)c3sc(NCCCCCC(=O)NO)cc3n2)cn1 | < 100
CNc1ccc(-c2nc(N3CCOCC3)c3sc(C(C)(C)Nc4ncc(C(=O)NO)cn4)cc3n2)cn1 | < 100
COc1ncc(-c2nc(N3CCOCC3)c3sc(CN(C)c4ncc(C(=O)NO)cn4)cc3n2)cn1 | < 100
CN(Cc1cc2nc(-c3ccc(OCc4ccccc4)nc3)nc(N3CCOCC3)c2s1)c1ncc(C(=O)NO)cn1 | > 10000
